# In patent US20240158446A1, “CYCLIC COMPOUND HAVING SELECTIVE INHIBITORY ACTION ON KRAS OVER HRAS AND NRAS” (CHUGAI SEIYAKU KABUSHIKI KAISHA, priority 2021, published 2024):
# Like-named read-outs stand apart in the source and are kept apart here. Where a SMILES comes first, the peptide text is derived from it. Bridges are numbered along the chain shown (N, C = ends). [ ]: non-standard residue; d: D form. The star is where a group is joined. hPhe(3-Cl-4-CF3) = N[C@@H](CCc1ccc(C(F)(F)F)c(Cl)c1)C(=O)O; NPrPhe(4-CF3) = CCCN[C@@H](Cc1ccc(C(F)(F)F)cc1)C(=O)O; NMePhe(4-CF3) = CN[C@@H](Cc1ccc(C(F)(F)F)cc1)C(=O)O; NMeAbu(4,4,4-F3) = CN[C@@H](CC(F)(F)F)C(=O)O; NMeGly(cPent) = CN[C@H](C(=O)O)C1CCCC1; Pro(4,4-Me2) = CC1(C)CN[C@H](C(=O)O)C1; Hyp = O=C(O)[C@@H]1C[C@@H](O)CN1; NMeD = CN[C@@H](CC(=O)O)C(=O)O; NMeL = CN[C@@H](CC(C)C)C(=O)O; Morpholide = C1CN(*)CCO1; NMeA = CN[C@@H](C)C(=O)O; Ac5c = NC1(C(=O)O)CCCC1; Aze = O=C(O)[C@@H]1CCN1; Ac4c = NC1(C(=O)O)CCC1; NEtG = CCNCC(=O)O; Sar = CNCC(=O)O
# Key:
# [1] = target: GDP-bound NRAS wild-type protein (Homo sapiens, UniProt P01111); test: Binding to NRAS by surface plasmon resonance (SPR), Single Cycle Kinetics; settings: for NRAS/KRAS (ratio of KD value for NRAS to KD value for KRAS) / NRAS/KRAS (ratio of KD value with respect to NRAS to KD value with respect to KRAS): SPR, GDP-bound NRAS wild-type protein vs GDP-bound KRAS wild-type protein
# [2] = target: GDP-bound HRAS wild-type protein (Homo sapiens, UniProt P01112); test: Binding to HRAS by surface plasmon resonance (SPR), Single Cycle Kinetics; settings: for HRAS/KRAS (ratio of KD value for HRAS to KD value for KRAS) / HRAS/KRAS (ratio of KD value with respect to HRAS to KD value with respect to KRAS): SPR, GDP-bound HRAS wild-type protein vs GDP-bound KRAS wild-type protein
# [3] = target: GDP-bound KRAS wild-type protein (Homo sapiens, UniProt P01116); test: Binding to KRAS by surface plasmon resonance (SPR), Single Cycle Kinetics; settings: GDP-bound KRAS wild-type protein, read-out: KRAS KD
# [4] = SPR Single Cycle Kinetics, 1:1 binding model
# GDP-bound NRAS wild-type protein, sequence (P01111 whole entry): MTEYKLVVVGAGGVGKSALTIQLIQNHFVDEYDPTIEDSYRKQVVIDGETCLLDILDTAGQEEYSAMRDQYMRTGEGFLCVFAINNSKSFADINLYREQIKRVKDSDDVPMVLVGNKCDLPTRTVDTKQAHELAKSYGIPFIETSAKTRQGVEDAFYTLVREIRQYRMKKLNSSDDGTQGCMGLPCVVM
# GDP-bound KRAS wild-type protein, sequence (P01116 whole entry): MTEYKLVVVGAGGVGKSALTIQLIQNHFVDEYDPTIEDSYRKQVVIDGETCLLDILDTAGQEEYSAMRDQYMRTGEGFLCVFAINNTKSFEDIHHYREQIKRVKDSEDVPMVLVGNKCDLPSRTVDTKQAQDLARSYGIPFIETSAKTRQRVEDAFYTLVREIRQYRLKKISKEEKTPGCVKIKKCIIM
# GDP-bound HRAS wild-type protein, sequence (P01112 whole entry): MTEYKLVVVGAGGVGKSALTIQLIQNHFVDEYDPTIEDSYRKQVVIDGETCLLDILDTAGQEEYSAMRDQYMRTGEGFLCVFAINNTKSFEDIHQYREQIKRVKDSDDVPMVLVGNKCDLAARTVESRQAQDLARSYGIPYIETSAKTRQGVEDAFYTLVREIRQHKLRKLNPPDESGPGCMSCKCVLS
SMILES,"Kd [3, 4]",NRAS/KRAS (ratio of KD value for NRAS to KD value for KRAS) [1],HRAS/KRAS (ratio of KD value for HRAS to KD value for KRAS) [2],other results
C#CC[C@H]1C(=O)N[C@@H]([C@@H](C)CC)C(=O)N(C)CC(=O)N(C)[C@H]2C/C=C\CCN(C2=O)[C@@H](Cc2ccc(C(F)(F)F)cc2)C(=O)N(C)CC(=O)N[C@@H](CCc2ccc(C(F)(F)F)c(Cl)c2)C(=O)N2C[C@H](OCC)C[C@H]2C(=O)NC2(CC(C)(C)C2)C(=O)N(C)[C@@H](C2CCCC2)C(=O)N(C)[C@H](C(=O)N(C)CC)CC(=O)N1C [PP2844],0.12 nM,–,–,"NRAS/KRAS (ratio of KD value with respect to GDP-bound NRAS wild-type protein to KD value with respect to KRAS) ([1]; SPR KD ratio NRAS/KRAS, class symbols): A (a compound having 10 or more and less than 20 is denoted as A); HRAS/KRAS (ratio of KD value with respect to GDP-bound HRAS wild-type protein to KD value with respect to KRAS) ([2]; SPR KD ratio HRAS/KRAS, class symbols): A (a compound having 10 or more and less than 20 is denoted as A)"
CCCN1C(=O)CN(C)C(=O)CN(CC)C(=O)[C@H]([C@@H](C)CC)NC(=O)[C@H](CC(C)C)N(C)C(=O)C[C@@H](C(=O)N2CCOCC2)NC(=O)[C@H](C2CCCC2)N(C)C(=O)C2(CCC2)NC(=O)[C@@H]2CCCN2C(=O)[C@H](CCc2ccc(C(F)(F)F)c(Cl)c2)NC(=O)CN(C)C(=O)[C@@H]1Cc1ccc(C(F)(F)F)cc1 [PP0332] ([NMeL]I[NEtG][Sar][NPrPhe(4-CF3)][Sar][hPhe(3-Cl-4-CF3)]P[Ac4c][NMeGly(cPent)]D-Morpholide; lactam N-11),3.2 nM,B (a compound having 3 or more and less than 10 is denoted as B),B (a compound having 3 or more and less than 10 is denoted as B),–
CCCN(C)C(=O)[C@@H]1CC(=O)N(C)[C@@H](CC(F)F)C(=O)N[C@@H]([C@@H](C)CC)C(=O)N(C)CC(=O)N(C)[C@H]2C/C=C\CCN(C2=O)[C@@H](Cc2ccc(C(F)(F)F)cc2)C(=O)N(C)CC(=O)N[C@@H](CCc2cc(F)c(C(F)(F)F)c(F)c2)C(=O)N2C[C@@H](C)C[C@H]2C(=O)NC2(CC(C)(C)C2)C(=O)N(C)[C@@H](C2CCCC2)C(=O)N1C [PP2040],–,A (a compound having 10 or more and less than 20 is denoted as A),A (a compound having 10 or more and less than 20 is denoted as A),"Kd ([3]; SPR, Single Cycle Kinetics): 0.31 nM"
CCCN(C)C(=O)[C@@H]1CC(=O)N(C)[C@@H](C(C)C)C(=O)N[C@@H]([C@@H](C)CC)C(=O)N(C)CC(=O)N(C)[C@H]2C/C=C\CCN(C2=O)[C@@H](Cc2ccc(C(F)(F)F)cc2)C(=O)N(C)CC(=O)N[C@@H](CCc2ccc(C(F)(F)F)c(OC)c2)C(=O)N2C[C@@H](C)C[C@H]2C(=O)NC2(CCC2)C(=O)N(C)[C@@H](C2CCCC2)C(=O)N1C [PP2067],–,AA (a compound having 20 or more is denoted as AA),A (a compound having 10 or more and less than 20 is denoted as A),"Kd ([3]; SPR, Single Cycle Kinetics): 0.24 nM"
"CCCN1C(=O)CN(C)C(=O)CN(CC)C(=O)[C@H]([C@@H](C)CC)NC(=O)[C@H](CC(C)C)N(C)C(=O)C[C@@H](C(=O)N2CCOCC2)N(C)C(=O)[C@H](C2CCCC2)N(C)C(=O)C2(CCCC2)NC(=O)[C@@H]2CC(C)(C)CN2C(=O)[C@H](CCc2ccc(C(F)(F)F)c(Cl)c2)NC(=O)CN(C)C(=O)[C@@H]1Cc1ccc(C(F)(F)F)cc1 [PP0450] ([NMeL]I[NEtG][Sar][NPrPhe(4-CF3)][Sar][hPhe(3-Cl-4-CF3)][Pro(4,4-Me2)][Ac5c][NMeGly(cPent)][NMeD]-Morpholide; lactam N-11)",0.38 nM,–,–,NRAS/KRAS (ratio of KD value with respect to NRAS to KD value with respect to KRAS) [1]: B (a compound having 3 or more and less than 10 is denoted as B); HRAS/KRAS (ratio of KD value with respect to HRAS to KD value with respect to KRAS) [2]: C (A compound having a KD ratio of 0.1 or more and less than 3 is denoted as C)
CC[C@H](C)[C@@H]1NC(=O)[C@H](CC(C)C)N(C)C(=O)C[C@@H](C(=O)N2CCOCC2)N(C)C(=O)[C@H](C2CCCC2)N(C)C(=O)C2(CCCC2)NC(=O)[C@@H]2CCCN2C(=O)[C@H](CCc2ccc(C(F)(F)F)c(Cl)c2)NC(=O)CN(C)C(=O)[C@H](Cc2ccc(C(F)(F)F)cc2)N(C)C(=O)CN(C)C(=O)CN(C)C1=O [PP0076] ([NMeL]I[Sar][Sar][NMePhe(4-CF3)][Sar][hPhe(3-Cl-4-CF3)]P[Ac5c][NMeGly(cPent)][NMeD]-Morpholide; lactam N-11),0.064 nM,C (A compound having a KD ratio of 0.1 or more and less than 3 is denoted as C),C (A compound having a KD ratio of 0.1 or more and less than 3 is denoted as C),–
CCO[C@@H]1C[C@H]2C(=O)NC3(CC(C)(C)C3)C(=O)N(C)[C@@H](C(CC)CC)C(=O)N(C)[C@H](C(=O)N(C)C)CC(=O)N(C)[C@H]3CCCCCCc4ccc(cc4)C[C@@H](C(=O)N(C)CC(=O)N[C@@H](CCc4ccc(C(F)(F)F)c(OC)c4)C(=O)N2C1)N1CC/C=C\C[C@@H](C1=O)N(C)C(=O)CN(C)C(=O)[C@H]([C@@H](C)CC)NC3=O [PP3032],–,AA (a compound having 20 or more is denoted as AA),A (a compound having 10 or more and less than 20 is denoted as A),"Kd ([3]; SPR, Single Cycle Kinetics): 0.1 nM"
"CCCN1C(=O)[C@@H]2CCN2C(=O)[C@H](C)N(C)C(=O)[C@H]([C@@H](C)CC)NC(=O)[C@H](CC(F)(F)F)N(C)C(=O)C[C@@H](C(=O)N2CCOCC2)N(C)C(=O)[C@H](C2CCCC2)N(C)C(=O)C2(CCCC2)NC(=O)[C@@H]2CCCN2C(=O)[C@H](CCc2ccc(C(F)(F)F)c(Cl)c2)NC(=O)CN(C)C(=O)[C@@H]1Cc1ccc(C(F)(F)F)cc1 [PP0191] ([NMeAbu(4,4,4-F3)]I[NMeA][Aze][NPrPhe(4-CF3)][Sar][hPhe(3-Cl-4-CF3)]P[Ac5c][NMeGly(cPent)][NMeD]-Morpholide; lactam N-11)",0.14 nM,C (A compound having a KD ratio of 0.1 or more and less than 3 is denoted as C),B (a compound having 3 or more and less than 10 is denoted as B),–
CC[C@H](C)[C@@H]1NC(=O)[C@H](CC(C)C)N(C)C(=O)C[C@@H](C(=O)N2CCOCC2)N(C)C(=O)[C@H](C2CCCC2)N(C)C(=O)C2(CCCC2)NC(=O)[C@@H]2CCCN2C(=O)[C@H](CCc2ccc(C(F)(F)F)c(Cl)c2)NC(=O)CN(C)C(=O)[C@H](Cc2ccc(OC(F)(F)F)cc2)N2CCCCC[C@@H](C2=O)N(C)C(=O)CN(C)C1=O [PP0615],6.2 nM,–,–,NRAS/KRAS (ratio of KD value with respect to NRAS to KD value with respect to KRAS) [1]: B (a compound having 3 or more and less than 10 is denoted as B); HRAS/KRAS (ratio of KD value with respect to HRAS to KD value with respect to KRAS) [2]: B (a compound having 3 or more and less than 10 is denoted as B)
CCCN1C(=O)CN(C)C(=O)CN(CC)C(=O)[C@H]([C@@H](C)CC)NC(=O)[C@H](CC(C)C)N(C)C(=O)C[C@@H](C(=O)N(C)C)NC(=O)[C@H](C2CCCC2)N(C)C(=O)C2(CCCC2)NC(=O)[C@@H]2C[C@@H](OCC)CN2C(=O)[C@H](CCc2ccc(C(F)(F)F)c(Cl)c2)NC(=O)CN(C)C(=O)[C@@H]1Cc1ccc(C(F)(F)F)cc1 [PP0371] ([NMeL]I[NEtG][Sar][NPrPhe(4-CF3)][Sar][hPhe(3-Cl-4-CF3)][Hyp](Et)[Ac5c][NMeGly(cPent)]D-NMe2; lactam N-11),0.48 nM,B (a compound having 3 or more and less than 10 is denoted as B),C (A compound having a KD ratio of 0.1 or more and less than 3 is denoted as C),–
CCCN1C(=O)CN(C)C(=O)CN(CC)C(=O)[C@H]([C@@H](C)CC)NC(=O)[C@H](CC(C)C)N(C)C(=O)C[C@@H](C(=O)N2CCOCC2)N(C)C(=O)[C@H](C2CCCC2)N(C)C(=O)C2(CCCC2)NC(=O)[C@@H]2CCCN2C(=O)[C@H](CCc2ccc(C(F)(F)F)c(Cl)c2)NC(=O)CN(C)C(=O)[C@@H]1Cc1ccc(C(F)(F)F)cc1 [PP0145] ([NMeL]I[NEtG][Sar][NPrPhe(4-CF3)][Sar][hPhe(3-Cl-4-CF3)]P[Ac5c][NMeGly(cPent)][NMeD]-Morpholide; lactam N-11),0.5 nM,B (a compound having 3 or more and less than 10 is denoted as B),B (a compound having 3 or more and less than 10 is denoted as B),–
CCCN1C(=O)CN(C)C(=O)[C@@H]2CCN2C(=O)[C@H]([C@@H](C)CC)NC(=O)[C@H](CC(C)C)N(C)C(=O)C[C@@H](C(=O)N(C)C)NC(=O)[C@H](C2CCCC2)N(C)C(=O)C2(CCCC2)NC(=O)[C@@H]2CCCN2C(=O)[C@H](CCc2ccc(C(F)(F)F)c(Cl)c2)NC(=O)CN(C)C(=O)[C@@H]1Cc1ccc(C(F)(F)F)cc1 [PP0373] ([NMeL]I[Aze][Sar][NPrPhe(4-CF3)][Sar][hPhe(3-Cl-4-CF3)]P[Ac5c][NMeGly(cPent)]D-NMe2; lactam N-11),1.2 nM,B (a compound having 3 or more and less than 10 is denoted as B),B (a compound having 3 or more and less than 10 is denoted as B),–
CC[C@H](C)[C@@H]1NC(=O)[C@H](CC2CCCC2)N(C)C(=O)C[C@@H](C(=O)N(C)C)N(C)C(=O)[C@H](C2CCCC2)N(C)C(=O)C2(CCC2)NC(=O)[C@@H]2C[C@@H](F)CN2C(=O)[C@H](CCc2cc(F)c(C(F)(F)F)c(F)c2)NC(=O)CN(C)C(=O)[C@H](Cc2ccc(C(F)(F)F)cc2)N2CC/C=C\C[C@@H](C2=O)N(C)C(=O)CN(C)C1=O [PP1502],–,–,–,"NRAS/KRAS (ratio of KD value for NRAS to KD value for KRAS) ([1]; KD ratio class): A (a compound having 10 or more and less than 20 is denoted as A); HRAS/KRAS (ratio of KD value for HRAS to KD value for KRAS) ([2]; KD ratio class): A (a compound having 10 or more and less than 20 is denoted as A); Kd ([3]; SPR, Single Cycle Kinetics, 1:1 binding model): 0.038 nM"
